In US20250154144A1 (CHILDREN'S HOSPITAL MEDICAL CENTER, priority 2021, published 2025):
Like-named read-outs stand apart in the source and are kept apart here.

Assays:
[1] = test system: MOLM14 D835Y cells; assay: cells; assay type: cell-based; conditions: 48 hours, Cell Titer Glo, read-out: MOLM14 D835Y IC50
[2] = test system: MOLM14 F691L cells; assay: cells; assay type: cell-based; conditions: 48 hours, Cell Titer Glo, read-out: MOLM14 F691L IC50
[3] = biological target: T1, FLT3 (Homo sapiens, UniProt P36888); assay: RBC HotSpot Kinase Assay, FLT3
T1 sequence (P36888 610-943 limits assumed): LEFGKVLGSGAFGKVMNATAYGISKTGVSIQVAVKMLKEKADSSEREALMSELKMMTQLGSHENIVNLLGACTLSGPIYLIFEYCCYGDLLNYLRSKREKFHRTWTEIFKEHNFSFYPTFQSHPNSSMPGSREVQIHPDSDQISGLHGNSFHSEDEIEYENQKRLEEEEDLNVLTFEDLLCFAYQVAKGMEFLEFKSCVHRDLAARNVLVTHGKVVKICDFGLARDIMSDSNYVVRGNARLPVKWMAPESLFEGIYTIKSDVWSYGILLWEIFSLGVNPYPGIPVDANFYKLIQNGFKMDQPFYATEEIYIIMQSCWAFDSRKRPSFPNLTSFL

[4] = biological target: IRAK1 (Homo sapiens, UniProt P51617); assay: RBC HotSpot Kinase Assay, IRAK1; conditions: IRAK1 IC50
Chain of IRAK1 (P51617 whole entry): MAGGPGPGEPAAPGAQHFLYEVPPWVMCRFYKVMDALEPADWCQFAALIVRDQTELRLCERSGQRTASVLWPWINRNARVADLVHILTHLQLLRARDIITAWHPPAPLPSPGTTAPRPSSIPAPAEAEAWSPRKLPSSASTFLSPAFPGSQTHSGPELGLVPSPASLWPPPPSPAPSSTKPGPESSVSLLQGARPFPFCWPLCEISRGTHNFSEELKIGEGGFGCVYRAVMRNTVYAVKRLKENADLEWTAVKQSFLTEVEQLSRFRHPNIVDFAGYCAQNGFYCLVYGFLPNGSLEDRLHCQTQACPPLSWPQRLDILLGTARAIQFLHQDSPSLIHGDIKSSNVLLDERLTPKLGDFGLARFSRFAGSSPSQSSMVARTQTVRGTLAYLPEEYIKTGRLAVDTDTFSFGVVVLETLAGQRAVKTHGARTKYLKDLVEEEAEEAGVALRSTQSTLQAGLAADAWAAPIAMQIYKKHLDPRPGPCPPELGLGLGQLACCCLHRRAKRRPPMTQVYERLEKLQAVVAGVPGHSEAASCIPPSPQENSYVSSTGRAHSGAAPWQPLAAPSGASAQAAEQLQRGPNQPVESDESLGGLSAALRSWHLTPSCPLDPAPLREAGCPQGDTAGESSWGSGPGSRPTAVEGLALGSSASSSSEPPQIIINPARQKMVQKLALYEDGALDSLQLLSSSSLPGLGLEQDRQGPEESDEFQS

[5] = biological target: T2, IRAK4 (Homo sapiens, UniProt Q9NWZ3); assay: RBC HotSpot Kinase Assay, IRAK4; conditions: IRAK4 IC50
T2 sequence (Q9NWZ3 1-460): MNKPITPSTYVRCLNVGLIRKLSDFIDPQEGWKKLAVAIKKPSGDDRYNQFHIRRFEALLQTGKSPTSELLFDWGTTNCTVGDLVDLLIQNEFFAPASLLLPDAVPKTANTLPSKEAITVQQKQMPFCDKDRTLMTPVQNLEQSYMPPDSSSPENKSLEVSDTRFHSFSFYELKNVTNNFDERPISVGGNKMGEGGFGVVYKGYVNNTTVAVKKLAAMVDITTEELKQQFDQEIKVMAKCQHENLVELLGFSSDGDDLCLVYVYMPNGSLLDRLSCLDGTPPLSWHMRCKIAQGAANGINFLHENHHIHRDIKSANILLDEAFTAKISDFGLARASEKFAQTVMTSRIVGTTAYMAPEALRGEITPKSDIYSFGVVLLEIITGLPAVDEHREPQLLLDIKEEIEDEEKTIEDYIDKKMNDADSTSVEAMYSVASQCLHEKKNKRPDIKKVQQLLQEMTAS

[6] = biological target: T3, FLT3 (Homo sapiens, UniProt P36888); assay: Reaction Biology NanoBRET target engagement assay in HEK-293 cells, FLT3
T3 sequence (P36888 27-993): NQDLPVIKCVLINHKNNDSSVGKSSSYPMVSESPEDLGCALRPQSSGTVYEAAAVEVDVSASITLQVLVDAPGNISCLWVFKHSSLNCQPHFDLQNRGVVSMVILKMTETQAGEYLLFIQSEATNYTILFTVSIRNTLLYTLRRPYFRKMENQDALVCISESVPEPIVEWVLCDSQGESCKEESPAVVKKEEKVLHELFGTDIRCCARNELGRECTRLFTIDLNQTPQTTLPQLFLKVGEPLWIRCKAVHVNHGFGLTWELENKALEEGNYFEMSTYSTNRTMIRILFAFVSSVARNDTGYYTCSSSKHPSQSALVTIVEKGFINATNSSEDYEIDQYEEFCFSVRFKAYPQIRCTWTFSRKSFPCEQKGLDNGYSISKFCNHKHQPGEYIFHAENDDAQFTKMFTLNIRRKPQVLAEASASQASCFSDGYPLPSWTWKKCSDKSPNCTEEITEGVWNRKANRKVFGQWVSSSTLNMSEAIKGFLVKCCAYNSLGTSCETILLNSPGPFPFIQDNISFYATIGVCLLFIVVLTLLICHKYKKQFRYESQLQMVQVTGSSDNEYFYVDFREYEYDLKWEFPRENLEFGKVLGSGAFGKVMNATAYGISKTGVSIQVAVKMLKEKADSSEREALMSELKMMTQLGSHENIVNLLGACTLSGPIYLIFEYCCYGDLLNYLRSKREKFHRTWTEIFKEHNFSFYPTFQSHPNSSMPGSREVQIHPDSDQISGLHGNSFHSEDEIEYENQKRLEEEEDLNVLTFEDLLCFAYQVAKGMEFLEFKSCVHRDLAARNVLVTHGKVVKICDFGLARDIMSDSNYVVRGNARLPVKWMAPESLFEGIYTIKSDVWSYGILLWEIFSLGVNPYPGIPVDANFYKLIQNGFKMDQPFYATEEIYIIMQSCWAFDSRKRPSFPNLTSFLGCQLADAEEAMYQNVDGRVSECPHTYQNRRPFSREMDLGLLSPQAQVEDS

[7] = biological target: T2, IRAK4; assay: Reaction Biology NanoBRET target engagement assay in HEK-293 cells, IRAK4; conditions: NanoBRET IRAK4 IC50, HEK-293 cells
[8] = test system: THP1 cells; assay: Combination drug screening, Cell Titer Glo, 10 × 10 matrix, THP1 cells; assay type: cell-based; conditions: THP1 cells; for Excess HSA Score: 10 × 10
[9] = test system: MOLM14(D835Y) cells; assay type: cell-based; conditions: MOLM14(D835Y) cells; for Excess HSA Score: 10 × 10
[10] = NanoBRET FLT3 IC50, HEK-293 cells
[11] = combination with (+)-BAY-1251152
[12] = combination with Eprenetapopt/APR-246
[13] = combination with Venetoclax (ABT-199)

CC(O)(c1cn2c(-c3ccnc(N[C@@H]4CCCNC4)n3)cnc2cn1)C(F)(F)F (single isomer, unassigned) [Compound 68]
IC50 [1]: 86 nM | IC50 [2]: 545 nM | IC50 ([3]; read-out: FLT3 IC50): < 0.5 nM | IC50 [4]: 7 nM | IC50 [5]: 4 nM | IC50 [6]: 388 nM | IC50 [7]: 3 nM

CC(O)(c1cn2c(-c3ccnc(N[C@H]4CNC[C@@H]4F)n3)cnc2cn1)C(F)(F)F (single isomer, unassigned) [Compound 69]
IC50 [1]: 193 nM | IC50 ([2]; Homo sapiens, MOLM-14, 48 h): 1220 nM | IC50 ([3]; FLT3 IC50): < 0.5 nM | IC50 [4]: 27 nM | IC50 [5]: 1 nM | IC50 [6, 10]: 1950 nM | IC50 [7]: 24 nM

CC(O)(c1cn2c(-c3ccnc(N[C@H]4CNCC[C@@H]4F)n3)cnc2cn1)C(F)(F)F (single isomer, unassigned) [Compound 70]
IC50 ([3]; read-out: FLT3 IC50): < 0.5 nM | IC50 [4]: 12 nM | IC50 [5]: 43 nM | IC50 [6, 10]: 1120 nM | IC50 [7]: 29 nM

CC(O)(c1cn2c(-c3cncc(N[C@H]4CNCC[C@@H]4F)n3)cnc2cn1)C(F)(F)F (single isomer, unassigned) [Compound 76]
IC50 [1]: 486 nM | IC50 ([2]; Homo sapiens, MOLM-14, 48 h): 686 nM | IC50 ([3]; FLT3 IC50): < 0.5 nM | IC50 [4]: 8 nM | IC50 [5]: 2 nM | IC50 [6, 10]: 3860 nM | IC50 [7]: 19 nM

FC(F)COc1ccn2c(-c3cncc(N[C@H]4CNCC[C@@H]4F)n3)cnc2c1 [Compound 9, 6-(7-(2,2-difluoroethoxy)imidazo[1,2-a]pyridin-3-yl)-N-((3S,4S)-4-fluoropiperidin-3-yl)pyrazin-2-amine]
IC50 ([1]; Homo sapiens, MOLM-14, 48 h): 19 nM | IC50 ([2]; Homo sapiens, MOLM-14, 48 h): 31 nM | IC50 ([3]; FLT3 IC50): < 0.5 nM | IC50 [4]: 65 nM | IC50 [5]: 1 nM | IC50 [6, 10]: 22 nM | IC50 [7]: < 0.5 nM

FC(F)Oc1ccn2c(-c3cncc(N[C@H]4CNCC[C@@H]4F)n3)cnc2c1 [Compound 15, 6-(7-(difluoromethoxy)imidazo [1,2-a]pyridin-3-yl)-N-((3S,4S)-4-fluoropiperidin-3-yl)pyrazin-2-amine]
IC50 ([1]; Homo sapiens, MOLM-14, 48 h): 77 nM | IC50 ([2]; Homo sapiens, MOLM-14, 48 h): 154 nM | IC50 ([3]; FLT3 IC50): < 0.5 nM | IC50 [4]: 69 nM | IC50 [5]: 4 nM | IC50 [6, 10]: 367 nM | IC50 [7]: 10 nM

CC(C)(O)c1ccc2ncc(-c3cncc(N[C@H]4CNCC[C@@H]4F)n3)n2c1 [Compound 18, 2-(3-(6-(((3S,4S)-4-fluoropiperidin-3-yl)amino)pyrazin-2-yl)imidazo[1,2-a]pyridin-6-yl)propan-2-ol]
IC50 ([3]; FLT3 IC50): 1 nM | IC50 [4]: 116 nM | IC50 [5]: 3 nM | IC50 [6, 10]: 2820 nM | IC50 [7]: 0.8 nM

COc1cc2ncc(-c3cncc(N[C@H]4CNCC[C@@H]4F)n3)n2cc1C(C)(C)O [Compound 21, 2-(3-(6-(((3S,4S)-4-fluoropiperidin-3-yl)amino)pyrazin-2-yl)-7-methoxyimidazo[1,2-a]pyridin-6-yl)propan-2-ol]
IC50 ([1]; Homo sapiens, MOLM-14, 48 h): 27 nM | IC50 ([2]; Homo sapiens, MOLM-14, 48 h): 34 nM | IC50 ([3]; FLT3 IC50): < 0.5 nM | IC50 [4]: 0.5 nM | IC50 [5]: < 0.5 nM | IC50 [6, 10]: 159 nM | IC50 [7]: < 0.5 nM

FC(F)COc1ccn2c(-c3ccnc(N[C@H]4CNCC[C@@H]4F)n3)cnc2c1 [Compound 33, 4-(7-(2,2-difluoroethoxy)imidazo[1,2-a]pyridin-3-yl)-N-((3S,4S)-4-fluoropiperidin-3-yl)pyrimidin-2-amine]
IC50 ([1]; Homo sapiens, MOLM-14, 48 h): 7 nM | IC50 ([2]; Homo sapiens, MOLM-14, 48 h): 55 nM | Excess HSA Score [8, 11]: −13.85 | Excess HSA Score ([8]; combination with AMG-232): −215.5 | Excess HSA Score ([8]; combination with AZD-5363): −132.5 | Excess HSA Score [8, 12]: 545.1487 | Excess HSA Score ([8]; combination with Ivosidenib): −154.2 | Excess HSA Score ([8]; combination with Lenalidomide): 178.6 | Excess HSA Score ([8]; combination with Palbociclib): −194.6 | Excess HSA Score ([8]; combination with Prednisolone): 467.2 | Excess HSA Score ([8]; combination with SNDX-5613): 587.7 | Excess HSA Score ([8]; combination with TNO-155): −195.2 | Excess HSA Score ([8]; combination with Trametinib): −463.7 | Excess HSA Score ([8]; combination with Ulixertinib): −63.1 | Excess HSA Score [8, 13]: −1595 | Comments ([8]; combination with Lenalidomide): Antagonistic | Comments [8, 13]: Synergistic | Excess HSA Score [9, 11]: 684.1 | Excess HSA Score ([9]; combination with AMG-232): −604.4 | Excess HSA Score ([9]; combination with AZD-5363): 320.5 | Excess HSA Score [9, 12]: −279.9 | Excess HSA Score ([9]; combination with Ivosidenib): −12.14 | Excess HSA Score ([9]; combination with Lenalidomide): −11.33 | Excess HSA Score ([9]; combination with Palbociclib): 347 | Excess HSA Score ([9]; combination with Prednisolone): −659.1 | Excess HSA Score ([9]; combination with SNDX-5613): 95.25 | Excess HSA Score ([9]; combination with TNO-155): 177.1 | Excess HSA Score ([9]; combination with Trametinib): −226.8 | Excess HSA Score ([9]; combination with Ulixertinib): −441.5 | Excess HSA Score [9, 13]: −315.6 | Comments ([9]; combination with Prednisolone): Synergistic | Comments ([9]; combination with SNDX-5613): Antagonistic | IC50 ([3]; FLT3 IC50): < 0.5 nM | IC50 [4]: 30 nM | IC50 [5]: 2 nM

CC(C)(O)c1ccc2ncc(-c3ccnc(N[C@H]4CNCC[C@@H]4F)n3)n2c1 [Compound 42, 2-(3-(2-(((3S,4S)-4-fluoropiperidin-3-yl)amino)pyrimidin-4-yl)imidazo[1,2-a]pyridin-6-yl)propan-2-ol]
IC50 ([3]; FLT3 IC50): < 0.5 nM | IC50 [4]: 158 nM | IC50 [5]: 4 nM | IC50 [6, 10]: 137 nM | IC50 [7]: 2 nM
